# Reference: ChEMBL document CHEMBL1201862, “PubChem BioAssay data set” (2004)
#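 Compound exposure: 48 hours, 5 concentrations, 96-well plates. GI50 marks 50% less growth.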 Active and inactive are the calls of the source. Cut-off read from the data, not from the text of the source: active = GI50 up to about 1.1 µM and inactive = higher.
# Tests used:
# Experiment in all cases: growth of human tumour cells (NCI), 48 h
# DLD-1 = system: DLD-1
# DMS-114 = system: DMS-114
# HOP-18 = system: HOP-18
# LXFL 529 = system: LXFL 529
# SNB-78 = system: SNB-78
# DMS-273 = system: DMS-273
# KM-20L2 = system: KM-20L2
# RXF 631 = system: RXF 631
# XF498 = system: XF498
SMILES,GI50 (DLD-1),GI50 (DMS-114),GI50 (HOP-18),GI50 (LXFL 529),GI50 (SNB-78),GI50 (DMS-273),GI50 (KM-20L2),GI50 (RXF 631),GI50 (XF498)
c1ccc2c(c1)[nH]c1c[nH]c3c4cccnc4nc-3c12,15.6 µM (inactive),19 µM (inactive),18.6 µM (inactive),18.5 µM (inactive),23.4 µM (inactive),–,–,–,–
COC(=O)C1=C(C(=O)OC)C2(c3ccccc3)OC1(c1ccccc1)c1cc3ccccc3cc12,1.74 µM (inactive),–,1.22 µM (inactive),1.22 µM (inactive),–,1.76 µM (inactive),1.88 µM (inactive),1.88 µM (inactive),–
NC(=O)c1cccc([C@@H]2O[C@H](CO)[C@@H](O)[C@H]2O)c1,5.46 µM (inactive),15.3 µM (inactive),26.1 µM (inactive),–,7.43 µM (inactive),7.66 µM (inactive),7.36 µM (inactive),12 µM (inactive),2.05 µM (inactive)
CC[C@@]1(OP(=O)(O)O)C(=O)OCc2c1cc1n(c2=O)Cc2cc3ccccc3nc2-1,1.11 µM (active),0.0485 µM (active),1.08 µM (active),1.73 µM (inactive),4.63 µM (inactive),0.0513 µM (active),1 µM (active),–,0.221 µM (active)
O=c1cc(CO)oc2c3c(cc(O)c12)OCC(COC1OC(CO)C(O)C(O)C1O)=CC3 (stereo not given),> 100 µM (inactive),> 100 µM (inactive),> 100 µM (inactive),> 100 µM (inactive),> 100 µM (inactive),> 100 µM (inactive),> 100 µM (inactive),–,–
CC(C)N(CCn1c2c3ccccc3ccc2c2oc(=O)c3ccccc3c21)C(C)C,> 100 µM (inactive),> 100 µM (inactive),32.7 µM (inactive),> 100 µM (inactive),98.9 µM (inactive),–,> 100 µM (inactive),> 100 µM (inactive),75.7 µM (inactive)
Cc1ccc(/C=C2\CCCCC2=O)cc1,49.2 µM (inactive),43.6 µM (inactive),24 µM (inactive),94.6 µM (inactive),73.6 µM (inactive),40.1 µM (inactive),> 100 µM (inactive),> 100 µM (inactive),> 100 µM (inactive)
CCOC(=O)/C(O)=C(/c1n[nH]c(=O)c2ccccc12)[N+](=O)[O-],> 100 µM (inactive),> 100 µM (inactive),> 100 µM (inactive),> 100 µM (inactive),> 100 µM (inactive),> 100 µM (inactive),> 100 µM (inactive),–,–
COc1cc(Cl)c2c3c(c(C(=O)c4ccccc4)oc13)CCC2,> 100 µM (inactive),> 100 µM (inactive),> 100 µM (inactive),> 100 µM (inactive),> 100 µM (inactive),69.7 µM (inactive),> 100 µM (inactive),–,> 100 µM (inactive)
O=c1c2ccccc2c2nc3ccccc3nc2n1C1CCCCC1,–,> 100 µM (inactive),–,> 100 µM (inactive),> 100 µM (inactive),> 100 µM (inactive),> 100 µM (inactive),–,–
CCO/C=C1\N=C(c2ccc(Cl)c(Cl)c2)OC1=O,> 100 µM (inactive),28.4 µM (inactive),–,> 100 µM (inactive),> 100 µM (inactive),> 100 µM (inactive),> 100 µM (inactive),–,> 100 µM (inactive)
CCC1(OC(=O)CN2CCN(CCO)CC2)C(=O)OCc2c1cc1n(c2=O)Cc2cc3ccccc3nc2-1 (stereo not given),6.62 µM (inactive),0.558 µM (active),0.76 µM (active),6.05 µM (inactive),5.25 µM (inactive),0.0652 µM (active),1.22 µM (inactive),–,2.16 µM (inactive)
CC1(C)c2ccccc2N2C(c3ccccc3)=NOC21C (stereo not given),> 100 µM (inactive),> 100 µM (inactive),> 100 µM (inactive),> 100 µM (inactive),> 100 µM (inactive),> 100 µM (inactive),> 100 µM (inactive),> 100 µM (inactive),–
CN(CC1NCCCC1O)C12CC3CC(CC(C3)C1)C2 (stereo not given),> 100 µM (inactive),> 100 µM (inactive),> 100 µM (inactive),> 100 µM (inactive),–,> 100 µM (inactive),> 100 µM (inactive),–,> 100 µM (inactive)
CCCOP1(=O)C=C(C)C(Cl)=C(C)C1 (stereo not given),22.8 µM (inactive),19.7 µM (inactive),29.4 µM (inactive),20.7 µM (inactive),–,14.6 µM (inactive),29.3 µM (inactive),37.1 µM (inactive),16.5 µM (inactive)
CC(=O)O[C@H]1C(=O)[C@@]2(C)C([C@H](OC(=O)c3ccccc3)[C@]3(O)C[C@H](OC(=O)[C@H](O)[C@H](NC(=O)c4ccccc4)c4ccc(Cl)cc4)C(C)=C1C3(C)C)C1(OC(C)=O)CO[C@@H]1C[C@@H]2O (stereo not given in full),0.00233 µM (active),< 0.0001 µM (active),0.0794 µM (active),0.00191 µM (active),0.071 µM (active),0.000111 µM (active),0.00103 µM (active),0.104 µM (active),0.00728 µM (active)
NC(=S)N/N=C1\C(=O)N(CCc2ccccc2)C(=O)C1C(=O)NCCc1ccccc1 (stereo not given),–,74.8 µM (inactive),> 100 µM (inactive),> 100 µM (inactive),> 100 µM (inactive),> 100 µM (inactive),> 100 µM (inactive),–,–
Clc1ccc(C(n2cc(Br)cn2)n2cc(Br)cn2)cc1,–,–,18.1 µM (inactive),14.9 µM (inactive),19.7 µM (inactive),18.8 µM (inactive),–,–,–
Cc1cc(Cl)ccc1NC(=O)C1C(=O)N(c2ccc(Cl)cc2C)C(=O)/C1=N\N (stereo not given),–,30.1 µM (inactive),40.6 µM (inactive),44 µM (inactive),74.8 µM (inactive),–,36 µM (inactive),–,65 µM (inactive)
COC(=O)c1c(N)n[nH]c1N,> 100 µM (inactive),–,–,–,> 100 µM (inactive),> 100 µM (inactive),> 100 µM (inactive),> 100 µM (inactive),> 100 µM (inactive)
COC(=O)[C@H]1C=C[C@@H](C)n2c(=O)c3cc4ccccc4cc3c(=O)n21,> 100 µM (inactive),> 100 µM (inactive),–,> 100 µM (inactive),> 100 µM (inactive),> 100 µM (inactive),> 100 µM (inactive),> 100 µM (inactive),98.9 µM (inactive)
c1ccc(C(c2ccccc2)c2ccccn2)cc1,> 100 µM (inactive),> 100 µM (inactive),> 100 µM (inactive),–,> 100 µM (inactive),> 100 µM (inactive),> 100 µM (inactive),> 100 µM (inactive),> 100 µM (inactive)
Cc1c2n(c(=O)[nH]c1=O)C1OC(CO)C(N=[N+]=[N-])C1O2 (stereo not given),> 100 µM (inactive),> 100 µM (inactive),–,> 100 µM (inactive),> 100 µM (inactive),> 100 µM (inactive),> 100 µM (inactive),–,–
CC(CCc1ccc2c(c1)c(N)c1ccc(N)cc1[n+]2[O-])CC(C)(C)C (stereo not given),1.82 µM (inactive),–,1.93 µM (inactive),1.53 µM (inactive),2.05 µM (inactive),2.21 µM (inactive),1.37 µM (inactive),1.65 µM (inactive),1.16 µM (inactive)
